Assay [1] concerns K. pneumoniae ATCC BAA-2146, NDM-1 pos. To be noted: ATCC BAA-2146. On the procedure:
(§1) Bacteria were either obtained from American Type Culture Collection (ATCC; Manassas, Va., USA) or independent academic clinical isolate collections, as listed in Table 18 below. Bacteria were cultured in Nutrient broth (NB; Bacto Laboratories, catalogue No. 234000) or Mueller Hinton broth (MHB; Bacto Laboratories, catalogue No. 211443) at 37° C. overnight with shaking (˜180 RPM). A sample of each culture was then diluted 50-fold in fresh MHB and incubated at 37° C. for 2-3 h with shaking (˜180 RPM). Compound stock solutions were prepared as 0.64 mg/mL or 2.56 mg/mL in water. The compounds, at twice the final desired concentration, were serially diluted 2-fold across the wells of 96-well plates (Polystyrene, Corning, catalogue No. 3370). Mid-log phase bacterial cultures (after 2-3 h incubation) were diluted to a final concentration of 1×10^6 colony forming units (CFU)/mL, and 50 μL was added to each well giving a final cell density of 5×10^5 and a compound concentration range of 32 μg/mL to 0.015 μg/mL (128-0.06 μg/mL against P. aeruginosa PA9704).

Another assay relates to P. aeruginosa ATCC 27853. Particulars: ATCC 27853. On the procedure:
as §1

A further assay concerns E. coli ATCC 25922. Particulars: ATCC 25922. As for the experimental part:
as §1

The subject of assay [2] is P. aeruginosa GN_043, PmxR. On the procedure: as §1
In the next assay the test system is A. baumannii GN_093 PmxR. To be noted: GN 093 PmxR. As for the experimental part:
as §1

For assay [3], the system named is K. pneumoniae ATCC 700603, MDR. Particulars: ATCC 700603. As for the experimental part:
as §1

Assay [4] concerns S. aureus ATCC 25923, MSSA. Particulars: ATCC 25923. As for the experimental part: as §1
A further assay deals with A. baumannii ATCC 19606. Particulars: ATCC 19606. On the procedure: as §1
In a further assay the test system is K. pneumoniae ATCC 13883. To be noted: ATCC 13883. As for the experimental part: as §1
Assay [5] deals with P. aeruginosa GN_105, PmxR. Particulars: GN 105, PmxR. As for the experimental part: as §1
In assay [6] the test system is K. pneumoniae GN_102 PmxR. To be noted: GN 102 PmxR. On the procedure: as §1
Assay [7] relates to K. pneumoniae GN_106, PmxR. Particulars: GN 106, PmxR. On the procedure:
as §1

SMILES strings stand for the structures. Values after ≈ are worked out from the molar mass of the structure shown. Where two headings read alike, the source gives them in different places. Positions of bridges follow the written chain, without caps; N, C: chain ends. Non-standard residues stand in square brackets, D forms with d. Residues, ends and D or L forms follow the SMILES beside them. *: point of attachment. Decanoyl(3R-OH) = CCCCCCC[C@@H](O)CC(=O)*; dDab = NCC[C@@H](N)C(=O)O; Dab = NCC[C@H](N)C(=O)O; Dap = NC[C@H](N)C(=O)O

In the case of `CCCCCCC[C@@H](O)CC(=O)N[C@H](CCN)C(=O)N[C@H]1CCNC(=O)[C@H](CC(C)C)NC(=O)[C@H](CCN)NC(=O)[C@H](CCN)NC(=O)[C@H](CC(C)C)NC(=O)[C@@H](Cc2ccccc2)NC(=O)[C@H](CCN)NC1=O` [Octapeptin C4 (631), 3(R)OH-nC9CO-D-Dab-cyc[L-Dab-L-Dab-D-Phe-L-Leu-L-Dab-L-Dab-L-Leu], reference compound] ({Decanoyl(3R-OH)}-[dDab][Dab][Dab][dF]L[Dab][Dab]L; lactam 2-C), in assay [1], the “MIC K. pneumoniae ATCC BAA-2146, NDM-1 pos” value amounted to 8 µg/mL (≈ 7.66 µM) and the “MIC, K. pneumoniae ATCC BAA-2146, NDM-1 pos” value came out at 8 µg/mL (≈ 7.66 µM). Moreover, in the assay on P. aeruginosa ATCC 27853, the “MIC P. aeruginosa ATCC 27853” value is 2 µg/mL (≈ 1.92 µM) and the “MIC, P. aeruginosa ATCC 27853” value stood at 2 µg/mL (≈ 1.92 µM). Moreover, in the assay with E. coli ATCC 25922, the “MIC E. coli ATCC 25922” value turned out to be 4 µg/mL (≈ 3.83 µM) and the “MIC, E. coli ATCC 25922” value is 4 µg/mL (≈ 3.83 µM). Moreover, in assay [2], the “MIC P. aeruginosa GN_043, PmxR” value was 2 µg/mL (≈ 1.92 µM). In [2] (P. aeruginosa GN_043, PmxR), the “MIC P. aeruginosa GN_043, PmxR” value stood at 2 µg/mL (≈ 1.92 µM). The “MIC, P. aeruginosa FADDI-PA070, PmxR” value in [2] (Table 5, polymyxin-resistant) came out at 2 µg/mL (≈ 1.92 µM). The “MIC P. aeruginosa GN_043, PmxR” value in assay [2] (polymyxin-resistant) came out at 2 µg/mL (≈ 1.92 µM). In assay [2] (strain name as in Table 11), the “MIC, P. aeruginosa FADDI-PA070, PmxR” value turned out to be 2 µg/mL (≈ 1.92 µM). In the assay on A. baumannii GN_093 PmxR, the “MIC A. baumannii Cl Ptyela 10073 4512:2, PmxR” value turned out to be 4 µg/mL (≈ 3.83 µM); the “MIC A. baumannii GN_093 PmxR” value came out at 4 µg/mL (≈ 3.83 µM); the “MIC, A. baumannii Cl Ptyela 10073 4512:2, PmxR” value amounted to 4 µg/mL (≈ 3.83 µM). In assay [3], the “MIC K. pneumoniae ATCC 700603, MDR” value stood at 8 µg/mL (≈ 7.66 µM) and the “MIC, K. pneumoniae ATCC 700603, MDR” value was 8 µg/mL (≈ 7.66 µM). Moreover, in [4], the “MIC S. aureus ATCC 25923, MSSA” value was determined as 16 µg/mL (≈ 15.3 µM) and the “MIC, S. Aureus ATCC 25923, MSSA” value turned out to be 16 µg/mL (≈ 15.3 µM). Further, in the assay on A. baumannii ATCC 19606, the “MIC A. baumannii ATCC 19606” value is 4 µg/mL (≈ 3.83 µM) and the “MIC, A. baumannii ATCC 19606” value was 4 µg/mL (≈ 3.83 µM). Besides, in the assay with K. pneumoniae ATCC 13883, the “MIC K. pneumoniae ATCC 13883” value came out at 8 µg/mL (≈ 7.66 µM) and the “MIC, K. pneumoniae ATCC 13883” value came to 8 µg/mL (≈ 7.66 µM). Further, in assay [5], the “MIC P. aeruginosa GN_105, PmxR” value came out at 2 µg/mL (≈ 1.92 µM); the “MIC P. aeruginosa PA9704, PmxR” value worked out at 2 µg/mL (≈ 1.92 µM); the “MIC, P. aeruginosa PA9704, PmxR” value is 2 µg/mL (≈ 1.92 µM). In assay [6], the “MIC K. pneumoniae Cl Koprana 10065 0661:1 PmxR” value came to 2 µg/mL (≈ 1.92 µM); the “MIC K. pneumoniae GN_102 PmxR” value came to 2 µg/mL (≈ 1.92 µM); the “MIC, K. pneumoniae Cl Koprana 10065 0661:1, PmxR” value was 2 µg/mL (≈ 1.92 µM). In assay [7], the “MIC K. pneumoniae Cl 183-16357-20352, PmxR” value came to 4 µg/mL (≈ 3.83 µM); the “MIC K. pneumoniae GN_106, PmxR” value was 4 µg/mL (≈ 3.83 µM); the “MIC, K. pneumoniae Cl 138-16347-20362, PmxR” value is 4 µg/mL (≈ 3.83 µM).

Regarding `CCCCCCC[C@@H](O)CC(=O)N[C@H](CCN)C(=O)N[C@H]1CCNC(=O)[C@H](CC(C)C)NC(=O)[C@H](CCN)NC(=O)[C@H](CCN)NC(=O)[C@H](CC(C)C)NC(=O)[C@@H](Cc2ccccc2)NC(=O)[C@H](CN)NC1=O` [compound 993, 3(R)OH-nC9CO-D-Dab-cyc[L-Dab-L-Dap-D-Phe-L-Leu-L-Dab-L-Dab-L-Leu]] ({Decanoyl(3R-OH)}-[dDab][Dab][Dap][dF]L[Dab][Dab]L; lactam 2-C), the “MIC, K. pneumoniae ATCC BAA-2146, NDM-1 pos” value in assay [1] worked out at 8 µg/mL (≈ 7.76 µM). For the same compound, the “MIC, P. aeruginosa ATCC 27853” value against P. aeruginosa ATCC 27853 came to 2 µg/mL (≈ 1.94 µM). In addition, the “MIC, E. coli ATCC 25922” value against E. coli ATCC 25922 was found to be 2 µg/mL (≈ 1.94 µM). For the same compound, the “MIC, P. aeruginosa FADDI-PA070, PmxR” value in assay [2] (Table 5, polymyxin-resistant) came out at 2 µg/mL (≈ 1.94 µM). In addition, the “MIC, A. baumannii Cl Ptyela 10073 4512:2, PmxR” value with A. baumannii GN_093 PmxR was 16 µg/mL (≈ 15.5 µM). Also, in [3], the “MIC, K. pneumoniae ATCC 700603, MDR” value is 4 µg/mL (≈ 3.88 µM). Further, in [4], the “MIC, S. Aureus ATCC 25923, MSSA” value came to 8 µg/mL (≈ 7.76 µM). Moreover, the “MIC, A. baumannii ATCC 19606” value in the assay with A. baumannii ATCC 19606 amounted to 8 µg/mL (≈ 7.76 µM). Also, in the assay with K. pneumoniae ATCC 13883, the “MIC, K. pneumoniae ATCC 13883” value is 4 µg/mL (≈ 3.88 µM). Moreover, the “MIC, P. aeruginosa PA9704, PmxR” value in [5] came out at 2 µg/mL (≈ 1.94 µM). In addition, in assay [6], the “MIC, K. pneumoniae Cl Koprana 10065 0661:1, PmxR” value was 2 µg/mL (≈ 1.94 µM). For the same compound, the “MIC, K. pneumoniae Cl 138-16347-20362, PmxR” value in assay [7] is 2 µg/mL (≈ 1.94 µM).

As to `CCCCCCC[C@@H](O)CC(=O)N[C@H](CCN)C(=O)N[C@H]1CCNC(=O)[C@H](CC(C)C)NC(=O)[C@H](C)NC(=O)[C@H](CCN)NC(=O)[C@H](CC(C)C)NC(=O)[C@@H](Cc2ccccc2)NC(=O)[C@H](CCN)NC1=O` [compound 4944, 3(R)OH-nC9CO-D-Dab-cyc[L-Dab-L-Dab-D-Phe-L-Leu-L-Dab-L-Ala-L-Leu]] ({Decanoyl(3R-OH)}-[dDab][Dab][Dab][dF]L[Dab]AL; lactam 2-C), in assay [1], the “MIC K. pneumoniae ATCC BAA-2146, NDM-1 pos” value turned out to be 8 µg/mL (≈ 7.88 µM). For the same compound, the “MIC P. aeruginosa ATCC 27853” value against P. aeruginosa ATCC 27853 was 8 µg/mL (≈ 7.88 µM). For the same compound, the “MIC E. coli ATCC 25922” value with E. coli ATCC 25922 stood at 16 µg/mL (≈ 15.8 µM). Further, the “MIC P. aeruginosa GN_043, PmxR” value in assay [2] (polymyxin-resistant) amounted to 4 µg/mL (≈ 3.94 µM). The “MIC A. baumannii GN_093 PmxR” value in the assay on A. baumannii GN_093 PmxR is above 32 µg/mL. Also, the “MIC K. pneumoniae ATCC 700603, MDR” value in assay [3] was found to be 16 µg/mL (≈ 15.8 µM). Moreover, in assay [4], the “MIC S. aureus ATCC 25923, MSSA” value was above 32 µg/mL. Moreover, the “MIC A. baumannii ATCC 19606” value in the assay with A. baumannii ATCC 19606 was 32 µg/mL (≈ 31.5 µM). In addition, in the assay on K. pneumoniae ATCC 13883, the “MIC K. pneumoniae ATCC 13883” value was 16 µg/mL (≈ 15.8 µM). In assay [5], the “MIC P. aeruginosa GN_105, PmxR” value was determined as 16 µg/mL (≈ 15.8 µM). The “MIC K. pneumoniae GN_102 PmxR” value in [6] is 8 µg/mL (≈ 7.88 µM). Moreover, the “MIC K. pneumoniae GN_106, PmxR” value in assay [7] was found to be 32 µg/mL (≈ 31.5 µM).

Values taken from patent publication US11279733B2, “Peptide antibiotics” (priority 2017, dated 2022).
